Literature values, collected in patent publication US5912253A, “Rapamycin derivatives” (Novartis AG, priority 1993, dated 1999).

Tests used:
[1] = system: macrophilin-12 (FK-506 binding protein or FKBP-12)
[2] = in vivo

SMILES: C=CC[C@@H]1/C=C(\C)C[C@H](C)C[C@H](OC)[C@H]2O[C@@](O)(C(=O)C(=O)N3CCCC[C@H]3C(=O)O[C@H](/C(C)=C/[C@@H]3CC[C@@H](O)[C@H](OC)C3)[C@H](C)[C@@H](O)CC1=O)[C@H](C)C[C@@H]2OC [FK-506]
- binding in vivo to macrophilin-12 [1]: known to bind in vivo to macrophilin-12

SMILES: CO[C@H]1C[C@@H]2CC[C@@H](C)[C@@](O)(O2)C(=O)C(=O)N2CCCC[C@H]2C(=O)O[C@H]([C@H](C)C[C@@H]2CC[C@@H](O)[C@H](OC)C2)CC(=O)[C@H](C)/C=C(\C)[C@@H](O)[C@@H](OC)C(=O)[C@H](C)C[C@H](C)/C=C/C=C/C=C/1C [Rapamycin, rapamycin]
- solubility: highly insoluble
- bioavailability [2]: very low and variable
- binding in vivo to macrophilin-12 [1]: known to bind in vivo to macrophilin-12
